Test results reported in patent publication US20250250646A1, “DUAL GENETIC REPORTERS IN HUMAN PLURIPOTENT CELLS FOR USE AS ALTERNATIVE TO MOUSE EMBRYO ASSAY” (Nexpring US Opco Inc., priority 2022, published 2025).

What was measured:
CGA-snLuc cells = conditions: MEAlt assays; low levels of adulterant
Description: (§1) To perform this assay, cells from the cell lines described in Example 1 were thawed using standard procedures and plated on Vitronectin coated wells of a 96-well plate in Essential 8 Flex medium with Revitacell supplement. Plating density for SOX2-snLuc cells was approximately 20,000 cells per well and for the CGA-snLuc cells, approximately 15,000 cells per well. Empty wells were filled with PBS to reduce variation in Nanoluciferase concentration related to evaporation. Cells were allowed to recover for 7-18 hours prior to exposure to test media.
For CGA-snLuc cells the activation of the reporter required medium that supported trophectoderm/placental differentiation, such as BAP medium. […] DAF-BAP contained DMEM with 25 mM HEPES and 4.5 g/L Glucose and without L-Glutamine, 100 ng/ml BMP-4, 1 μM A83-01, 0.1 μM PD173074, 5 mg/mL of AlbumiNZ Bovine Albumin Low Free Fatty Acid, and 40 μM forskolin. Media was pre-warmed prior to forskolin addition to prevent precipitation.
Following recovery from thawing, media was exchanged to the respective test medium for each cell line. […] Secreted Nanoluciferase was detected by removing 10% of the culture media and mixing in a white assay plate with substrate and buffer using the Promega Nano-Glo Luciferase Assay kit. Luminescence was measured with a BioTek Cytation 1 imaging reader. […]

SOX2-snLuc cells = conditions: MEAlt assays; low levels of adulterant
Description: as §1
For SOX2-snLuc cells the test media was Essential 8 Flex.
Following recovery from thawing, media was exchanged to the respective test medium for each cell line. […] In the case of SOX2-snLuc cells, a baseline read of Luciferase expression was optionally performed prior to media exchange to assess variations in plating density or post-thaw recovery. Exposure to test medium was for 24-96 hours for SOX2-snLuc cells and 48-96 hours for CGA-snLuc cells. Secreted Nanoluciferase was detected by removing 10% of the culture media and mixing in a white assay plate with substrate and buffer using the Promega Nano-Glo Luciferase Assay kit. Luminescence was measured with a BioTek Cytation 1 imaging reader.
The assay was also tested in the context of detecting an adulterant, ethylene glycol (EG), that is known to affect viability of mouse embryos.

Molecule | detection of adulterant by the MEAlt assay (CGA-snLuc cells) | detection of adulterant by the MEAlt assay (SOX2-snLuc cells)
C=O [formaldehyde] | successfully detect low levels | successfully detect low levels
triton-x-100 | successfully detect low levels | successfully detect low levels
